Laboratory results reported in ChEMBL document CHEMBL1201862, “PubChem BioAssay data set” (2004).
Active and inactive are the calls of the source.

Legend:
[1] = target: Diphosphomevalonate decarboxylase (Streptococcus pneumoniae serotype 2 (strain D39 / NCTC 7466), UniProt Q9FD53); assay: diphosphomevalonate decarboxylase inhibitor confirmation – biochemical, cuvette format, coupled NADH fluorescence (AID 1028); format: functional
[2] = target: Sphingosine 1-phosphate receptor 2 (Homo sapiens, UniProt O95136); assay: Dose Response Cell Based Assay for Agonists of the S1P2 Receptor of Purchased Analogues. [Related pubchem assays: 729, 843, 854, 736 ]; format: functional
Chain of Sphingosine 1-phosphate receptor 2 (O95136 whole entry): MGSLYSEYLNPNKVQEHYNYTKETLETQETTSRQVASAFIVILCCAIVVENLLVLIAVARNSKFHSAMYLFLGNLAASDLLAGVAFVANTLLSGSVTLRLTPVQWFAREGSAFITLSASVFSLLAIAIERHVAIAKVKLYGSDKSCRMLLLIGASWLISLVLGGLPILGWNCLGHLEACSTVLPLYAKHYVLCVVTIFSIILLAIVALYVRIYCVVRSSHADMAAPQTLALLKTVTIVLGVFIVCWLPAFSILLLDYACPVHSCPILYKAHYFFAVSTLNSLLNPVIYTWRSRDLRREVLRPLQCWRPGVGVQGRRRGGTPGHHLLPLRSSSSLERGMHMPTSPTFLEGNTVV

Bcl-2-like protein 1 = Bcl-2-like protein 1 (Homo sapiens, UniProt Q07817); assay: blockers of BCLXL peptide binding – biochemical, fluorescence polarization, 1536-well, selectivity assay for MCL1 inhibitor project, dose response (AID 2218)
Chain of Bcl-2-like protein 1 (Q07817 whole entry): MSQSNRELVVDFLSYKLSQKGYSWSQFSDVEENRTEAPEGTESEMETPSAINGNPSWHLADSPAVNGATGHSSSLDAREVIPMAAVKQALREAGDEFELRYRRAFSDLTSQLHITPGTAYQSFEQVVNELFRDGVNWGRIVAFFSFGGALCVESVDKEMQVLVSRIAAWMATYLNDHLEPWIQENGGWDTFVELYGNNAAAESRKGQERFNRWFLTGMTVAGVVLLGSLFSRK

[3] = target: T1, Induced myeloid leukemia cell differentiation protein Mcl-1 (Homo sapiens, UniProt Q07820); assay: blockers of MCL1 binding to BIM peptide – biochemical, fluorescence polarization, BIM-BH3 peptide, 1536-well, dose response (AID 2217)
T1 sequence (Q07820 whole entry): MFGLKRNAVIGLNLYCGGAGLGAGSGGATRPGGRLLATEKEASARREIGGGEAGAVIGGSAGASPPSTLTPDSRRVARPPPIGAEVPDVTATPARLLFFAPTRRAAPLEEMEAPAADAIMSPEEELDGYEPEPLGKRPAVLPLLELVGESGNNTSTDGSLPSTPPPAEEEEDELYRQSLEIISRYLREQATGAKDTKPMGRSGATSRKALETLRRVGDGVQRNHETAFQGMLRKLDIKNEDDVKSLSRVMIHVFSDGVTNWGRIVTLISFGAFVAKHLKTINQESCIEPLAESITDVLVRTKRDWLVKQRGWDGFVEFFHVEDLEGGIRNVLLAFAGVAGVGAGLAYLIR

[4] = target: T1, Induced myeloid leukemia cell differentiation protein Mcl-1; format: functional
Cytochrome P450 2C19 = Cytochrome P450 2C19 (Homo sapiens, UniProt P33261); assay: qHTS Assay for Inhibitors and Substrates of Cytochrome P450 2C19. [Related pubchem assays: 410 ]; format: ADME; conditions: read-out: Potency
Chain of Cytochrome P450 2C19 (P33261 whole entry): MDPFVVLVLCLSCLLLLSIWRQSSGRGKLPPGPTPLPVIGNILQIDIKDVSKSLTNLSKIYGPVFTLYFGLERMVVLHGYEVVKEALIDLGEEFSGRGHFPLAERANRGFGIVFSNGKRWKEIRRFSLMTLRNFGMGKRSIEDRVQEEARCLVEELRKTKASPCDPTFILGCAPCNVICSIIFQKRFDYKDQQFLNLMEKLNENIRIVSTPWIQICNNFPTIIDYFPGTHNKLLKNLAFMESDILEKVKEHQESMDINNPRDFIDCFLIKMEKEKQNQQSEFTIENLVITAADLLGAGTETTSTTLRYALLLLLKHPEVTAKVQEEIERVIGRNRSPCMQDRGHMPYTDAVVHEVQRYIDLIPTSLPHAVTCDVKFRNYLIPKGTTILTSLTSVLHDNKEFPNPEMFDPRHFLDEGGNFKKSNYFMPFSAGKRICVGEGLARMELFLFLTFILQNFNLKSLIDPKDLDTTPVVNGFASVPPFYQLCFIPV

[5] = target: T2, Heat shock factor protein 1 (Mus musculus, UniProt P38532); assay: decrease of HSF1-responsive luciferase luminescence – cell-based, NIH3T3, dose retest, confirmation (AID 2382); format: functional;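 also: NIH3T3 fibroblasts with HSF1-driven luciferase reporter stressed by proteasome inhibitor MG132; luminescence from HSF1-driven luciferase expression after 8 hours of MG132 stress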
T2 sequence (P38532 whole entry): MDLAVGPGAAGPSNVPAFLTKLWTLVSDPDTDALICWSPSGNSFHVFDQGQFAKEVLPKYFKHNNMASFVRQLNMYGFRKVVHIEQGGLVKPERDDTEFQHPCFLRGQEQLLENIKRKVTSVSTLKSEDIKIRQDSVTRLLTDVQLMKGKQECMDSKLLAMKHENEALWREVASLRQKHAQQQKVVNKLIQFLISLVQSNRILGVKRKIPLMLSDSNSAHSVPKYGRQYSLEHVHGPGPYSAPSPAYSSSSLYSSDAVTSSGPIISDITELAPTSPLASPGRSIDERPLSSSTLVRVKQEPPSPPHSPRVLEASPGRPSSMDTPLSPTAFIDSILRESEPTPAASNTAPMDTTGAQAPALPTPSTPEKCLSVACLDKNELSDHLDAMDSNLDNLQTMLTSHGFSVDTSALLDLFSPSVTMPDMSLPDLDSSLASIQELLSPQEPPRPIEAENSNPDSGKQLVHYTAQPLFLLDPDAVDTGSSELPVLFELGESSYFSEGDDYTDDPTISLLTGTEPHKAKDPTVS

[6] = target: E3 ubiquitin-protein ligase Mdm2 (Homo sapiens, UniProt Q00987); assay: MDM2-luc reporter signal enhancers, multi-concentration potency testing, MDM2 ubiquitin-protein ligase inhibitor program, whole-cell format, luminescence detection, 384-well microplate (AID 1394); format: functional;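 also: MDM2 E3 inhibitors raise luminescence so EC50 is for signal enhancement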
Chain of E3 ubiquitin-protein ligase Mdm2 (Q00987 whole entry): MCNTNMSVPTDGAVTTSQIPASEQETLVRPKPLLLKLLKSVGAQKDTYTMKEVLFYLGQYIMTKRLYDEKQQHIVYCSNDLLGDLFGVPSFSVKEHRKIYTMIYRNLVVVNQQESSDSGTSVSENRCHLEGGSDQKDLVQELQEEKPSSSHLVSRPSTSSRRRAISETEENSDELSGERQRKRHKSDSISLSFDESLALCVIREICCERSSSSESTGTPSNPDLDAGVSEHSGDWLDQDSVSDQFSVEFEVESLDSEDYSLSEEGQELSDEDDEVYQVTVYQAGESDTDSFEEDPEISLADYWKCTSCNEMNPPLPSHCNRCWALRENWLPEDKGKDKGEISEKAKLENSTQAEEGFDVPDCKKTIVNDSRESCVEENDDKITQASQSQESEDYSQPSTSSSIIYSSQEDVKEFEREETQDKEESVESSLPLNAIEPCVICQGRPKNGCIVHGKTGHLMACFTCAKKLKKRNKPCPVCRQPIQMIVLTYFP

H4 = assay: Luminescence Cell-Based Dose Response HTS to Identify Activators of 5'UTR Stem-Loop Driven Prion Protein mRNA Translation in H4 Neuroglioblastoma Cells. [Related pubchem assays: 1829 (Project Summary), 1814 (Primary HTS)]; format: functional; conditions: Homo sapiens
[7] = MIN6 cell viability loss – mouse insulinoma, cytotoxicity control, dose response (AID 2122); format: functional;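 also: confirmatory high-throughput counterscreen run to flag cytotoxic compounds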
[8] = Luminescence Cell-Based Dose Confirmation HTS to Identify Activators of 5'UTR Stem-Loop Driven Alpha-Synuclein mRNA Translation in H4 Neuroglioblastoma Cells. [Related pubchem assays: 1829 (Project Summary), 1814 (Primary HTS)]; format: functional
[9] = target: Protein-tyrosine kinase 2-beta (Homo sapiens, UniProt Q14289);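 also: potency of inhibitors of PYK2 kinase phosphorylation of poly-GT substrate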
Chain of Protein-tyrosine kinase 2-beta (Q14289 whole entry): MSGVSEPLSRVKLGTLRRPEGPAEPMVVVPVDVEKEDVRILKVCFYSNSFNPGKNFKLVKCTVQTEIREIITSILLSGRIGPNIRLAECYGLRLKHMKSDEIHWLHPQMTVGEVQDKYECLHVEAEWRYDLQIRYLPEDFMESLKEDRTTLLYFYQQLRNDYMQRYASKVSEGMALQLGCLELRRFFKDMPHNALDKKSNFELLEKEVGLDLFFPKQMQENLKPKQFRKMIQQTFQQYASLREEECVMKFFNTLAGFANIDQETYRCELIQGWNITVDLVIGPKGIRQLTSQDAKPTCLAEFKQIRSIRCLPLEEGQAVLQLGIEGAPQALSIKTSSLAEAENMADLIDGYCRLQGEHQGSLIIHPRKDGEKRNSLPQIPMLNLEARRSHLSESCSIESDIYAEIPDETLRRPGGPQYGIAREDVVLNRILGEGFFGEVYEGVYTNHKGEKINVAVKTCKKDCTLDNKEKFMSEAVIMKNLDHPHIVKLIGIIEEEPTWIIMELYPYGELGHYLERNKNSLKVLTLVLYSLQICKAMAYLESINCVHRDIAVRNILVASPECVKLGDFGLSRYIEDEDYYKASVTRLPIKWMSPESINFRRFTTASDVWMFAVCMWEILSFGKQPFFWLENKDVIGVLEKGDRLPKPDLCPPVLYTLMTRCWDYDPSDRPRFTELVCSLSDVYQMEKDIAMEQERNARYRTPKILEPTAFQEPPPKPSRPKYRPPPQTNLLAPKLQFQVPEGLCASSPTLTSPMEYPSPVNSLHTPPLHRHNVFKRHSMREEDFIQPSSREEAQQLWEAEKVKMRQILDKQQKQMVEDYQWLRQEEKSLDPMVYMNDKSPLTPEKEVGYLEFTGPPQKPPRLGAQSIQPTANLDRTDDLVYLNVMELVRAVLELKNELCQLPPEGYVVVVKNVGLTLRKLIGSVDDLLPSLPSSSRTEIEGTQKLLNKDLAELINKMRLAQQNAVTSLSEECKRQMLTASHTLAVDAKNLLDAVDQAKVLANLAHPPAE

[10] = decrease of insulin promoter-GFP reporter – imaging, high-content screening, mouse beta cells (AID 1628); format: functional; conditions: MIN6
[11] = Luminescence Cell-Based Dose Response HTS to Identify Activators of Luciferase Translation or Activity in H4 […] Cells. [Related pubchem assays: 1829 (Project Summary), 1814 (Primary HTS)]; format: functional
[12] = target: G-protein coupled receptor 183 (Homo sapiens, UniProt P32249); assay: SAR confirmation of small molecule antagonists of the EBI2 receptor via a luminescent beta-arrestin assa.; format: functional
Chain of G-protein coupled receptor 183 (P32249 whole entry): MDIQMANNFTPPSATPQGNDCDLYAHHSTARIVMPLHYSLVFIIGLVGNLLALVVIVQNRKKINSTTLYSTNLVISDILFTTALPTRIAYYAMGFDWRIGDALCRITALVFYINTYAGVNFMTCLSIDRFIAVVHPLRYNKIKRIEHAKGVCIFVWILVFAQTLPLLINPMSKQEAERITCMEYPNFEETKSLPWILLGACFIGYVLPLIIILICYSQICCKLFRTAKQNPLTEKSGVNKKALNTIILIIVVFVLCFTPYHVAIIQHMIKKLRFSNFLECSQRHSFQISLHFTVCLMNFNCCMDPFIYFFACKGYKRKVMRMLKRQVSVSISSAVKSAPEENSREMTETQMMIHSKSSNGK

Vero = assay: inhibition of WNV-induced cytopathic effect – cell-based, CPE readout (AID 1621); format: functional; conditions: Chlorocebus sabaeus
[13] = viability loss in human Jurkat cells – cell-based, luminescence, cytotoxicity control for P. falciparum gametocyte viability project, dose response (AID 1117277); format: functional;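 also: potency reflects loss of cellular ATP meaning fewer viable cells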
[14] = viability inhibitors of stage V gametocytes – luminescence, dose response (AID 1117278); format: functional, cell-based;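 also: gametocytes exposed to compound for 24 hours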

Chain of Diphosphomevalonate decarboxylase (Q9FD53 whole entry): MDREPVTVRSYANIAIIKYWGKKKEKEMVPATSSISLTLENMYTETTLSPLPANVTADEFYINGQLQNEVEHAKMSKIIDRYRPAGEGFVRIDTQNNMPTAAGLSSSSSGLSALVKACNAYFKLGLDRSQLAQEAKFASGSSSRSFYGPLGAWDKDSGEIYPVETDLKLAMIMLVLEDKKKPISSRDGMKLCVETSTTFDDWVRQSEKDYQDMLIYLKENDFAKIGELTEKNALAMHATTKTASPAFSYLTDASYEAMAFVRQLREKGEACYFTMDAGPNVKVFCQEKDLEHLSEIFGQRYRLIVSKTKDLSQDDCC

## O=C(c1cccc(-n2sc3ccccc3c2=O)c1)N1CCCC1
[1]
  IC50: 16.5 µM (active)

## Cc1cc(C(=O)CN2C(=O)NC(Cc3ccccc3)C2=O)c(C)n1Cc1cccs1 (stereo not drawn)
[2]
  EC50: > 30 µM (not active)

## Nc1nc(S)c2ncn(C3OC(CO)C(O)C3O)c2n1 (stereo not drawn)
Bcl-2-like protein 1
  IC50: 34 µM (not active)
[3]
  IC50: 4.94 µM (active)
[4]
  IC50: 7.34 µM (active)

## CCCn1c(=O)[nH]c2nc(-c3ccc(S(=O)(=O)O)cc3)[nH]c2c1=O
Cytochrome P450 2C19
  AC50: 7.94 µM (inconclusive)

## CCOC(=O)/C=C/C(=O)Nc1ccccc1-c1ccccc1NC(=O)/C=C/C(=O)OCC
[5]
  EC50: 14.4 µM (active)
[6]
  EC50: 4.34 µM (active)

## Cc1ccc2[nH]c3c(NCc4ccco4)ncnc3c2c1
H4
  EC50: 17.8 µM (active)
[7]
  IC50: 2.95 µM (active)
[8]
  EC50: 29.1 µM (active)
[9]
  IC50: > 69.5 µM (not active)
[10]
  IC50: 2.53 µM (active)
[11]
  EC50: 20.1 µM (active)

## Cc1cc(CN2CCN(C(=O)/C=C/c3ccc(Br)cc3)CC2)ccc1F
[12]
  IC50: 0.0015 µM (active)

## Cc1ccc(-c2cc(C(=O)NCCCN3CCCC3)c3ccccc3n2)cc1C
Vero
  IC50: 21.8 µM (active)

## Cc1cc(S(=O)(=O)N(Cc2ccccc2F)C2CC2)ccc1-n1cnnn1
[13]
  IC50: > 83.2 µM (inactive)
[14]
  IC50: > 109 µM (inactive)
